Assays:
[1] = background statement; cited from earlier work
[2] = background statement; cited from earlier work; remark: listed apart in the source
[3] = Stability studies: HPLC of resveratrol remaining in aqueous solution; assay type: physicochemical
Protocol: The sample can then be analyzed via HPLC to determine the amount of resveratrol in the composition. This amount of resveratrol can be compared to the initially determined amount. This comparison amount can be used to determine the percent degradation.
Stability was determined by HPLC analysis of a 1% PAMAM-G4 amine dendrimer-resveratrol complex at 21° C. (ambient temperature), 37° C., and 4° C. […]

[4] = Dissolution studies in simulated gastric and intestinal fluids; assay type: physicochemical
Protocol: The formulation was split into 2 equal aliquots and lyophilized. Simulated gastric and intestinal fluids were prepared, with the simulated gastric fluid consisting of HCl, NaCl, Pepsin, and water while the simulated intestinal fluid consisted of NaOH, KH2PO4, and water. […] This experiment was protected from light. At various time points, 0.5 mL aliquots of fluid were removed from the chambers and analyzed via HPLC. The volume removed was replaced with fresh simulated fluid.

For `Oc1ccc(C=Cc2cc(O)cc(O)c2)cc1` [Resveratrol, 3,4′,5-trihydroxystilbene], the half-life [1] is listed as 8 to 14 min, the metabolic stability [1] is listed as “poor” and the oral bioavailability [1] is listed as “low”. The aqueous solubility [2] was 0.015 to 0.04 µg/mL, the drug remained intact ([3]; 4° C., day 29, aqueous solution) was “no drug remained” and the resveratrol remained intact ([3]; ambient temperature (21° C.), day 4, aqueous solution) was “completely degraded”. For the same molecule, the “time to dissolution (still dissolving at final time point)” value ([4]; simulated gastric fluid) was > 4.5 h and the “time to dissolution (still dissolving at final time point)” value ([4]; simulated intestinal fluid) was > 4.5 h.

From patent publication US11931321B2, “Compositions comprising a dendrimer-resveratrol complex and methods for making and using the same” (Concordia University, priority 2013, dated 2024)
